Experimental data as given in US4594329A, “CRF analogs” (The Salk Institute for Biological Studies, priority 1984, dated 1986).

What was measured:
[1] = system: secretion of ACTH and β-endorphin; settings: in mammals; cited from earlier work
[2] = in mammals; cited from earlier work
[3] = lowering of blood pressure, in vivo testing; settings: synthetic peptide; extended time period
[4] = system: cultured rat pituitary cells; assay: secretion of ACTH and β-endorphin by cultured rat pituitary cells; format: cell-based; settings: cultured rat pituitary cells; read-out: concentration giving half-maximal responses, secretion of ACTH and β-endorphin
[5] = system: gastric acid production; settings: cited from earlier work
[6] = system: secretion of ACTH and β-endorphin; assay: stimulation of ACTH and β-endorphin, background statements (in vitro and in vivo); settings: synthetic peptide

SMILES	biological activity in stimulating the secretion of ACTH and β-endorphin (reported) [1]	biological activity in lowering blood pressure (reported) [2]	lowering of blood pressure [3]	EC50 [4] [nM]	gastric acid production [5]	stimulation of ACTH and β-endorphin activities [6]
CC[C@H](C)[C@H](NC(=O)[C@@H](NC(=O)[C@H](CC(=O)O)NC(=O)[C@H](CC(C)C)NC(=O)[C@H](CC(C)C)NC(=O)[C@H](CC(C)C)NC(=O)[C@H](CCCNC(=N)N)NC(=O)[C@H](CC(N)=O)NC(=O)[C@H](CC(N)=O)NC(=O)[C@H](C)NC(=O)[C@H](C)NC(=O)[C@H](CCC(N)=O)NC(=O)[C@H](CCC(N)=O)NC(=O)[C@H](CCCCN)NC(=O)[C@H](CCC(=O)O)NC(=O)[C@H](CCCCN)NC(=O)[C@H](CCC(=O)O)NC(=O)[C@H](CCC(N)=O)NC(=O)[C@H](CCCCN)NC(=O)[C@H](CCC(=O)O)NC(=O)[C@@H](NC(=O)[C@H](CCC(=O)O)NC(=O)[C@@H](NC(=O)[C@H](CCSC)NC(=O)[C@H](CCCCN)NC(=O)[C@H](CCCNC(=N)N)NC(=O)[C@H](CC(C)C)NC(=O)[C@H](CC(C)C)NC(=O)[C@H](CCC(=O)O)NC(=O)[C@H](CC(C)C)NC(=O)[C@H](CO)NC(=O)[C@H](CC(C)C)NC(=O)[C@H](CC(=O)O)NC(=O)[C@@H](NC(=O)[C@H](CO)NC(=O)[C@@H](NC(=O)[C@@H]1CCCN1C(=O)[C@@H]1CCCN1C(=O)CNC(=O)[C@@H]1CCC(=O)N1)[C@@H](C)CC)[C@@H](C)CC)[C@@H](C)CC)[C@@H](C)CC)[C@@H](C)O)C(N)=O [Sauvagine]	stimulating the secretion of ACTH and β-endorphin	biological activity in lowering blood pressure in mammals				
CC[C@H](C)[C@H](NC(=O)[C@H](CC(=O)O)NC(=O)[C@H](CC(C)C)NC(=O)[C@H](CC(C)C)NC(=O)[C@H](CCCCN)NC(=O)[C@H](CCCNC(=N)N)NC(=O)[C@H](CC(N)=O)NC(=O)[C@H](CO)NC(=O)[C@H](Cc1c[nH]cn1)NC(=O)[C@H](C)NC(=O)[C@H](CCC(N)=O)NC(=O)[C@H](CCC(N)=O)NC(=O)[C@H](C)NC(=O)[C@H](CC(C)C)NC(=O)[C@H](CCC(N)=O)NC(=O)[C@H](CC(=O)O)NC(=O)[C@H](C)NC(=O)[C@H](CCCCN)NC(=O)[C@@H](NC(=O)[C@H](CCSC)NC(=O)[C@H](CCC(=O)O)NC(=O)[C@H](CC(C)C)NC(=O)[C@@H](NC(=O)[C@H](CCC(=O)O)NC(=O)[C@H](CCCNC(=N)N)NC(=O)[C@H](CC(C)C)NC(=O)[C@H](CC(C)C)NC(=O)[C@H](Cc1c[nH]cn1)NC(=O)[C@H](Cc1ccccc1)NC(=O)[C@@H](NC(=O)[C@H](CC(C)C)NC(=O)[C@H](CC(=O)O)NC(=O)[C@H](CC(C)C)NC(=O)[C@H](CO)NC(=O)[C@@H](NC(=O)[C@@H]1CCCN1C(=O)[C@@H]1CCCN1C(=O)[C@H](CCC(=O)O)NC(=O)[C@H](CCC(N)=O)NC(=O)[C@@H](N)CO)[C@@H](C)CC)[C@@H](C)O)C(C)C)[C@@H](C)O)C(=O)N[C@@H](C)C(N)=O [oCRF]	stimulating the secretion of ACTH and β-endorphin	biological activity in lowering blood pressure in mammals	substantially lower blood pressure for an extended time period	~0.25	inhibits gastric acid production	stimulate ACTH and β-endorphin activities in vitro and in vivo
CC[C@H](C)[C@H](NC(=O)[C@@H](NC(=O)[C@H](CCC(=O)O)NC(=O)[C@H](CCSC)NC(=O)[C@H](CC(C)C)NC(=O)[C@H](CCCCN)NC(=O)[C@H](CCCNC(=N)N)NC(=O)[C@H](CC(N)=O)NC(=O)[C@H](CO)NC(=O)[C@H](Cc1c[nH]cn1)NC(=O)[C@H](C)NC(=O)[C@H](CCC(N)=O)NC(=O)[C@H](CCC(N)=O)NC(=O)[C@H](C)NC(=O)[C@H](CC(C)C)NC(=O)[C@H](CCC(N)=O)NC(=O)[C@H](CCC(=O)O)NC(=O)[C@H](C)NC(=O)[C@H](CCCNC(=N)N)NC(=O)[C@H](C)NC(=O)[C@H](CCSC)NC(=O)[C@H](CCC(=O)O)NC(=O)[C@H](CC(C)C)NC(=O)[C@@H](NC(=O)[C@H](CCC(=O)O)NC(=O)[C@H](CCCNC(=N)N)NC(=O)[C@H](CC(C)C)NC(=O)[C@H](CC(C)C)NC(=O)[C@H](Cc1c[nH]cn1)NC(=O)[C@H](Cc1ccccc1)NC(=O)[C@@H](NC(=O)[C@H](CC(C)C)NC(=O)[C@H](CC(=O)O)NC(=O)[C@H](CC(C)C)NC(=O)[C@H](CO)NC(=O)[C@@H](NC(=O)[C@@H]1CCCN1C(=O)[C@@H]1CCCN1C(=O)[C@H](CCC(=O)O)NC(=O)[C@H](CCC(=O)O)NC(=O)[C@@H](N)CO)[C@@H](C)CC)[C@@H](C)O)C(C)C)[C@@H](C)CC)C(N)=O [rCRF, reference compound]			substantially lower blood pressure for an extended time period			stimulate ACTH and β-endorphin activities in vitro and in vivo
